Square brackets hold non-standard residues; d marks the D form. Peptide text beside a SMILES is read from it. * marks the point of attachment. Phe(4-NO2) = N[C@@H](Cc1ccc([N+](=O)[O-])cc1)C(=O)O; hPhe = N[C@@H](CCc1ccccc1)C(=O)O; Cha = N[C@@H](CC1CCCCC1)C(=O)O; Phg = N[C@H](C(=O)O)c1ccccc1; PhAc = O=C(Cc1ccccc1)*; Inp = O=C(O)C1CCNCC1; Bz = O=C(c1ccccc1)*

The target in one assay is T1, VLA-4 (Homo sapiens, UniProt P05556+P13612).
T1 construct: host or cells: Jurkat (human T lymphoblastic line)
T1 sequence (P13612 34-1032): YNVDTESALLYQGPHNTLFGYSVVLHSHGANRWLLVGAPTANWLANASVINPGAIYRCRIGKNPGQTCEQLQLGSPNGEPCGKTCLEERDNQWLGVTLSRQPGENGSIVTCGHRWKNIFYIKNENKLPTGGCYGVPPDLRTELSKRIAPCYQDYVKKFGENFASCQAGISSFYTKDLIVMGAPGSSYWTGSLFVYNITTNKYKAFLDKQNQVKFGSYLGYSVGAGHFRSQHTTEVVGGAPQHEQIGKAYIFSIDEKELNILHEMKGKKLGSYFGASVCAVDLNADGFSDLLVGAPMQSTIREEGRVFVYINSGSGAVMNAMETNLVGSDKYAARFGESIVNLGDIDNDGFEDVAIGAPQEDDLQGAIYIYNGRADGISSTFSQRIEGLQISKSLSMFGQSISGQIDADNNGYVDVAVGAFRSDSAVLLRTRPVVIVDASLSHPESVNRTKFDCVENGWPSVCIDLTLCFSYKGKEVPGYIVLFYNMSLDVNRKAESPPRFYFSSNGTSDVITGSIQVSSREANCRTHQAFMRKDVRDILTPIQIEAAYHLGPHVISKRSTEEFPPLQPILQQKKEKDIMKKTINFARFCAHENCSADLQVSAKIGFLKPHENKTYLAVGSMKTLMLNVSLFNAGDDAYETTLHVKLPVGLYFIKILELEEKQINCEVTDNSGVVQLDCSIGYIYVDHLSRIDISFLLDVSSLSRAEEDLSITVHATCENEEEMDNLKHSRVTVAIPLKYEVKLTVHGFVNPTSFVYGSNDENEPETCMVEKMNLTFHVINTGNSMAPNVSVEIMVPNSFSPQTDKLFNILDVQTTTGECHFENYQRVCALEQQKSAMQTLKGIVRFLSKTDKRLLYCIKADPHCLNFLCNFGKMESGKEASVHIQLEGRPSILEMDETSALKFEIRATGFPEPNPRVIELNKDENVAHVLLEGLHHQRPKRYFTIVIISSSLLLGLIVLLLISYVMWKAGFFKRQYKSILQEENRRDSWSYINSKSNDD
T1 sequence (P05556 21-798): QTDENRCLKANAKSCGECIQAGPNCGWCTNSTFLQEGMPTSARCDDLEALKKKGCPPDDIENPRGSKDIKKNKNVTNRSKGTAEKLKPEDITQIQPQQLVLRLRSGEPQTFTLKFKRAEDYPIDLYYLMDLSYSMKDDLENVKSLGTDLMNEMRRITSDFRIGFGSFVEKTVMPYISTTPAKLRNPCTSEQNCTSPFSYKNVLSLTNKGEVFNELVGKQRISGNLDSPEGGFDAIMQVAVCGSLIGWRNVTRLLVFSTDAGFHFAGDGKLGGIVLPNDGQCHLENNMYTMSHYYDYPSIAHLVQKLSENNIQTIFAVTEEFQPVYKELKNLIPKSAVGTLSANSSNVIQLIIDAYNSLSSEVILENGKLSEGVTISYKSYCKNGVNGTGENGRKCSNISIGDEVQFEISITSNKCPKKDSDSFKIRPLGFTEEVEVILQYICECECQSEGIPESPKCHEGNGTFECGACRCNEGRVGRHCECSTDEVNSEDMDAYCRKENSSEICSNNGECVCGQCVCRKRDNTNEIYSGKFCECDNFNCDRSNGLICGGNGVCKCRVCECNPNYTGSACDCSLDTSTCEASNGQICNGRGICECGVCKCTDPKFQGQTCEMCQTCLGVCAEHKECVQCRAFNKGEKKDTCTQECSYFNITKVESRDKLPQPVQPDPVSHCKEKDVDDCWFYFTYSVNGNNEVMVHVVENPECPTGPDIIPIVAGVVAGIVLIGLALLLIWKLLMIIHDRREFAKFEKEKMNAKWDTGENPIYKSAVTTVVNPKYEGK
The class given is cell-based.
Details: not given
On the procedure:
Binding inhibition is measured here as a concentration of peptide that inhibits one-half the binding between a standard number of Jurkat cells and a standard amount of CS-1 peptide bound to the surface of a microtiter plate well. Those concentrations are conveniently expressed as IC50 values, smaller numbers indicating a lower concentration required to inhibit 50 percent binding and therefore greater potency. Further specifics of this assay are provided hereinafter.
Jurkat cells (ATCC TIB 152), a human T lymphoblastic line, labeled with ^51 chromium were used to assay in vitro binding inhibition provided by various peptides discussed herein.
The plates were prepared as follows: The 25-mer CS1 peptide (SEQ ID NO:1) dissolved at 0.5-1 μg/ml in a buffer of 0.1M NaHCO3 at pH 9.5 tha also contained 10 μg/ml of bovine serum albumin (BSA) or a conjugate o the CS1 peptide linked to ovalbumin (CS1-OVA) dissolved at 1-2.5 μg/ml in the same buffer was used as the substrate. Each well of the microtiter plates was coated with 50 μl of substrate or buffer alone for controls The wells were permitted to dry out completely and were then rinsed twice with PBS at pH 7.4. Nonspecific binding sites of each well were then blocked using 200 μl per well of RPMI/1 percent BSA for two hours at room temperature. Both solid phaseaffixed substrates provided similar results.
Jurkat cells (3-5×10^6 cells) were placed into a 15 ml Falcon.TM roundbottom tube with a cap. The tube was centrifuged, and the extra medium was then removed.
Two hundred microliters of a ^51 Cr labeling solution were added to th centrifuged cells and maintained in contact with the cells for 90-120 minutes in a warm room. This procedure typically provides about 50,000-100,000 cpm/well with about 80-100 percent cell viability. Longer contact times provide a greater amount of labeling but lower cell viability.
The labeled cells are washed with (i) complete medium, (ii) 1 mM EDTA/PBS and then (iii) RPMI/1 percent BSA free of serum components. The cells are centrifuged after each washing. The cells are finally resuspended in serumfree RPMI/1 percent BSA at a concentration of 1×10^6 viabl cells/ml, which provides a concentration that is diluted by onehalf in th assay.
Inhibitor peptides are prepared as stock solutions at 20 mg/ml in DMSO in 1.5 ml cryogenic screwcap vials, and were stored at -70° C. Using Flow™ roundbottom or Vbottom microtiter plates, the inhibitor peptides were prepared at twice the assay concentration in RPMI/1 percent BSA at 6 μl/well.
Four initial dilutions were typically used.
The ^51 Crlabeled cells (1×10^6 cells at 60 μl/well) were then admixed with the diluted peptide solutions. The admixtures were maintained at room temperature (about 22° C.) for 30 minutes.
One hundred microliters of each inhibitor peptide/cell admixture were transferred to the substratecoated wells. This was done in triplicate for each dilution. The resulting plates were incubated for 30 minutes at 37° C. and then washed gently three times with RPMI/1 percent BSA at 200 μl/well. Binding was observed microscopically, particularly after the second wash.
The bound cells were then lysed by the addition of a 0.5 percent solution of sodium dodecylsulfate in water at 100 μl/well. The resulting solutions were then processed for counting and calculation of IC50 values following usual procedures. Appropriate positive and negative controls were used with each plate so that the results of separate assays could be normalized and compared.
For `CC(C)C[C@H](NC(=O)Cc1ccccc1)C(=O)N[C@@H](CC(=O)O)C(=O)N[C@@H](Cc1ccccc1)C(=O)N1CCC[C@H]1C(=O)NCCN(CCN(CCN(CCNC(=O)[C@@H]1CCCN1C(=O)[C@H](Cc1ccccc1)NC(=O)[C@H](CC(=O)O)NC(=O)[C@H](CC(C)C)NC(=O)Cc1ccccc1)C(=O)[C@@H]1CCCN1C(=O)[C@H](Cc1ccccc1)NC(=O)[C@H](CC(=O)O)NC(=O)[C@H](CC(C)C)NC(=O)Cc1ccccc1)C(=O)[C@@H]1CCCN1C(=O)[C@H](Cc1ccccc1)NC(=O)[C@H](CC(=O)O)NC(=O)[C@H](CC(C)C)NC(=O)Cc1ccccc1)C(=O)[C@@H]1CCCN1C(=O)[C@H](Cc1ccccc1)NC(=O)[C@H](CC(=O)O)NC(=O)[C@H](CC(C)C)NC(=O)Cc1ccccc1`, the “VLA-4 binding inhibition, times better than the standard 10-mer peptide of SEQ ID NO:3” value is recorded as “about 210 times”.

Staying with this assay, now noted: relative to standard peptide SEQ ID NO:3 (=1), normalized IC50; about one-tenth or less of SEQ ID NO:3 assigned zero.
As to `CC(C)C[C@H](NC(=O)Cc1ccccc1)C(=O)N[C@@H](CC(=O)O)C(=O)N[C@@H](Cc1ccccc1)C(=O)N1CCCC1CO` (stereo partly drawn), the “RELATIVE POTENCY (inhibition of VLA-4 binding CS-1)” value is 184.
Regarding `CC(C)C[C@H](NC(=O)Cc1ccccc1)C(=O)N[C@@H](CC(=O)O)C(=O)N[C@@H](Cc1ccccc1)C(=O)N1CC(O)C(O)C1` (stereo partly drawn), the “RELATIVE POTENCY (inhibition of VLA-4 binding CS-1)” value was found to be 194.
For the molecule `CC(C)C[C@H](NC(=O)Cc1ccccc1)C(=O)N[C@@H](CC(=O)O)C(=O)N[C@@H](Cc1ccccc1)C(=O)N1CCN(CCOCCO)CC1`, the “RELATIVE POTENCY (inhibition of VLA-4 binding CS-1)” value worked out at 505.
In the case of `CC(C)C[C@H](NC(=O)Cc1ccccc1)C(=O)N[C@@H](CC(=O)O)C(=O)N[C@@H](Cc1ccccc1)C(=O)N1CCN(CC(N)=O)CC1`, the “RELATIVE POTENCY (inhibition of VLA-4 binding CS-1)” value turned out to be 319.
For the molecule `CC(C)C[C@H](NC(=O)Cc1ccccc1)C(=O)N[C@@H](CC(=O)O)C(=O)N[C@@H](Cc1ccccc1)C(=O)N1CCN(CC(=O)O)CC1`, the “RELATIVE POTENCY (inhibition of VLA-4 binding CS-1)” value is on record as 2579.
Same read-out and setting: under `CC(C)C[C@H](NC(=O)Cc1ccccc1)C(=O)N[C@@H](CC(=O)O)C(=O)N[C@@H](Cc1ccccc1)C(=O)N1CCS(=O)(=O)CC1` stands 1060; under `CC(C)C[C@H](NC(=O)Cc1ccccc1)C(=O)N[C@@H](CC(=O)O)C(=O)N[C@@H](Cc1ccccc1)C(=O)N1CCC(O)CC1`, 603; under `CC(C)C[C@H](NC(=O)Cc1ccccc1)C(=O)N[C@@H](CC(=O)O)C(=O)N[C@@H](Cc1ccccc1)C(=O)N1CC[N+](C)(C)CC1`, 313.
The same measure, in the same setting: under `CCCCCCCCCC(=O)OC1CCN(C(=O)[C@H](Cc2ccccc2)NC(=O)[C@H](CC(=O)O)NC(=O)[C@H](CC(C)C)NC(=O)Cc2ccccc2)CC1` stands less than 1; under `CCCCCCCCCCCCCCCCCC(=O)OC1CCN(C(=O)[C@H](Cc2ccccc2)NC(=O)[C@H](CC(=O)O)NC(=O)[C@H](CC(C)C)NC(=O)Cc2ccccc2)CC1`, less than 1; under `CC(C)C[C@H](NC(=O)Cc1ccccc1)C(=O)N[C@@H](CC(=O)O)C(=O)N[C@@H](Cc1ccccc1)C(=O)N1CCSCC1`, 493.
On the same count and under the same terms, under `CC(C)C[C@H](NC(=O)Cc1ccccc1)C(=O)N[C@@H](CC(=O)O)C(=O)N[C@H]1Cc2ccccc2[C@H]2CCCCN2C1=O` stands 50; under `CC(C)C[C@H](NC(=O)Cc1ccccc1)C(=O)N[C@@H](CC(=O)O)C(=O)N[C@@H]1CCCCNC1=O`, 17.
Regarding `CC(C)C[C@H](NC(=O)Cc1ccccc1)C(=O)N[C@@H](CC(=O)O)C(=O)NC1Cc2ccccc2N(CCN2CCOCC2)C1=O` (stereo partly drawn), the “RELATIVE POTENCY (inhibition of VLA-4 binding CS-1)” value was found to be 20.
Same read-out and setting: under `CC(C)C[C@H](NC(=O)Cc1ccccc1)C(=O)N[C@@H](CC(=O)O)C(=O)NC1CCCCN(CC(N)=O)C1=O` (stereo partly drawn) stands 97; under `CC(C)C[C@H](NC(=O)Cc1ccccc1)C(=O)N[C@@H](CC(=O)O)C(=O)NC1Cc2ccccc2N(CC(C)C)C1=O` (stereo partly drawn), 6; under `CC(C)C[C@H](NC(=O)Cc1ccccc1)C(=O)N[C@@H](CC(=O)O)C(=O)NC(Cc1ccccc1)Cc1ccccc1`, 0.
For `CC(C)C[C@H](NC(=O)Cc1ccccc1)C(=O)N[C@@H](CC(=O)O)C(=O)NCCN1CCOCC1`, the “RELATIVE POTENCY (inhibition of VLA-4 binding CS-1)” value was 13.
Still for that read-out and setting: under `CC(C)C[C@H](NC(=O)Cc1ccccc1)C(=O)N[C@@H](CC(=O)O)C(=O)NC1Cc2ccccc2NC1=O` (stereo partly drawn) stands 31; under `CC(C)C[C@H](NC(=O)Cc1ccccc1)C(=O)N[C@@H](CC(=O)O)C(=O)NC1Cc2ccccc2N(CC(N)=O)C1=O` (stereo partly drawn), 45.
Consider `CC(C)C[C@H](NC(=O)Cc1ccccc1)C(=O)N[C@@H](CC(=O)O)C(=O)NC1CCCCNC1=O` (stereo partly drawn), for which the “RELATIVE POTENCY (inhibition of VLA-4 binding CS-1)” value is reported as 27.
Still for that read-out and setting: under `CC(C)C[C@H](NC(=O)Cc1ccccc1)C(=O)N[C@@H](CC(=O)O)C(=O)NN(Cc1ccccc1)C(=O)C1CCCC1` stands 1.
Same read-out and setting: under `CC(C)C[C@H](NC(=O)Cc1ccccc1)C(=O)N[C@@H](CC(=O)O)C(=O)NN(Cc1ccccc1)Cc1ccccc1` stands 0; under `CC(C)C[C@H](NC(=O)Cc1ccccc1)C(=O)N[C@@H](CC(=O)O)C(=O)NC1CCN(C2CCCCC2)C1=O` (stereo partly drawn), 7.
For `NC(=O)[C@H]1CCCN1C(=O)[C@H](Cc1ccccc1)NC(=O)[C@H](CC(=O)O)NC(=O)[C@H](CC1CCCCC1)NC(=O)c1ccccc1` (Bz-[Cha]DF[dP]-NH2), the “RELATIVE POTENCY (inhibition of VLA-4 binding CS-1)” value is on record as 17.
Still for that read-out and setting: under `CC(C)[C@H](NC(=O)[C@H](CC(=O)O)NC(=O)[C@H](CC1CCCCC1)NC(=O)c1ccccc1)C(=O)N1CCC[C@@H]1C(N)=O` (Bz-[Cha]DV[dP]-NH2) stands 11; under `CC(C)C[C@H](NC(=O)Cc1ccccc1)C(=O)N[C@@H](CC(=O)O)C(=O)N[C@@H](Cc1ccccc1)C(=O)N1CCC(C(N)=O)CC1` (PhAc-LDF[Inp]-NH2), 933; under `CC(C)C[C@H](NC(=O)Cc1ccccc1)C(=O)N[C@@H](CC(=O)O)C(=O)N[C@@H](Cc1ccccc1)C(=O)N1CCC(C(=O)O)CC1` (PhAc-LDF[Inp]-OH), 828.
Turning to `CC(C)C[C@H](NC(=O)Cc1ccccc1)C(=O)N[C@@H](CC(=O)O)C(=O)N[C@@H](Cc1ccc([N+](=O)[O-])cc1)C(=O)N1CCC[C@@H]1C(N)=O` (PhAc-LD[Phe(4-NO2)][dP]-NH2), the “RELATIVE POTENCY (inhibition of VLA-4 binding CS-1)” value came out at 40.
On the same count and under the same terms, under `CC(C)C[C@H](NC(=O)Cc1ccccc1)C(=O)N[C@@H](CC(=O)O)C(=O)N[C@H](C(=O)N1CCC[C@@H]1C(N)=O)c1ccccc1` (PhAc-LD[Phg][dP]-NH2) stands 61; under `CC(C)C[C@H](NC(=O)Cc1ccccc1)C(=O)N[C@@H](CC(=O)O)C(=O)N[C@@H](CCc1ccccc1)C(=O)N1CCC[C@@H]1C(N)=O` (PhAc-LD[hPhe][dP]-NH2), 94; under `NC(=O)[C@H]1CCCN1C(=O)[C@H](Cc1ccccc1)NC(=O)[C@H](CC(=O)O)NC(=O)[C@H](CC1CCCCC1)NC(=O)Cc1ccccc1` (PhAc-[Cha]DF[dP]-NH2), 217.

The values are drawn from patent US6117840A, “CS-1 peptidomimetics, compositions and methods of using the same” (Cytel Corporation, priority 1997, dated 2000).
